Earlier results as cited in US20100210573A1, “COMPOUND AND COMPOSITIONS FOR TREATMENT OF DISEASE” (Citrox Limited, priority 2008, published 2010).

Legend:
[1] = system: Leishmania donovani promastigotes and amastigotes; conditions: in vitro; Mittra et al., Molecular Medicine 6, 2000
[2] = system: Trypanosoma brucei gambiense; conditions: cell cultures; Antimicrobial Agents and Chemother. 48, 2004

SMILES: O=c1cc(-c2ccc(O)c(O)c2)oc2cc(O)cc(O)c12 [Luteolin]
- growth of Leishmania donovani promastigotes and amastigotes [1]: inhibit the growth

SMILES: O=c1c(O)c(-c2ccc(O)c(O)c2)oc2cc(O)cc(O)c12 [Quercetin]
- growth of Leishmania donovani promastigotes and amastigotes [1]: inhibit the growth
- apoptosis of Trypanosoma brucei gambiense [2]: induce apoptosis
